{
  "source": "patent US10729693B2",
  "about": "“Compositions and methods for the treatment of endometriosis” (PONCE MEDICAL SCHOOL FOUNDATION, INC., priority 2018, dated 2020)",
  "key": {"endometriosis vesicles": {"system": "endometriosis vesicles", "experiment": "Autotransplantation rat model of endometriosis: vesicle development and morphology", "type": "in vivo", "settings": "at 60 days", "excerpt": "Experiment 2 consisted of 51 female rats that underwent endometriosis induction (n=40) or sham surgery (n=11). From the 40 rats that underwent endometriosis induction, 20 rats received the CRHR1 antagonist antalarmin intraperitoneally (i.p.) and 20 rats received vehicle control i.p. (10% Tween 80) from days 1-7 after surgery and endometriosis was allowed to progress until day 60 after surgery. The remaining 11 rats that underwent sham surgery were left untreated until day 60 after surgery. The sham group was used as a non-endometriosis baseline comparison. Only rats with regular estrous cycles were used in the experiments as assessed by vaginal smear lavage during the 7 days prior to surgery and on the day of sacrifice. […] Therefore, the final group numbers for endometriosis quantification and behavior were: endometriosis-antalarmin=20, endometriosis-vehicle=20, sham=10. Cyclicity was not assessed during the drug administration and was only collected before treatment and the day of sacrifice. This was decided to avoid any additional stressors not related to the drug administration per se that may affect results. The estrous cycle distribution for experiments 1 and 2 can be accessed in FIG. 14.\nFirst, endometriosis in female rats was induced by suturing uterine horn tissue next to the intestinal mesentery and allowed to progress for 7 days. After 7 days, it was determined that there was a significant increase in CRHR1 within endometriotic vesicles as compared to a normal uterus. Endometriosis was induced in a second group of rats, and further the second group of rats received consecutive doses of antalarmin of 20 milligrams per kilogram intraperitoneal (20 mg/kg, i.p.) during the first 7 days after surgery. A separate group of sham surgery rats served as controls.\nBriefly, rats were anesthetized with isoflurane and four pieces of the right uterine horn were auto transplanted to 4 different blood vessels in the intestinal mesentery. The control group was sham operated animals for which the right uterine horn was massaged for 2 minutes and sutures were placed in the intestinal mesenteric area with no uterine implants. For group 1, sham or endometriosis operated rats were allowed to progress for 7 days after surgery before sacrificed. For group 2, endometriosis was allowed to progress for 60 days before sacrificing.\nIt was verified that the animals were deeply anesthetized. Rats were weighed, and a cytological smear taken to verify stage of the estrous cycle. The peritoneal and thoracic cavities were opened, and a blood sample was collected directly from the heart. Following this, peritoneal fluid was collected using a sterile plastic pipette. Examination was directed to the presence of endometriosis vesicles. The implants that developed into vesicles were excised from the mesentery, weighed and measured using a digital caliper. Classification of vesicles was carried out and assigned the following grades: grade 1=disappeared; grade 2=0.01-1.99 mm; grade 3=2-4.49 mm; grade 4=4.5-5.99 mm; grade 5=6.0 mm or larger. In sham animals, empty suture sites were counted and collected. In addition to the endometriosis vesicles, the adrenal glands were collected, all surrounding fatty tissue was removed, and the cleared adrenal glands were weighed. Additionally, tissues from colon and the left uterine horn were collected. All tissues were flash frozen and stored at −80° until further processing."}, "[1]": {"system": "CRH peptide, CRHR1 and glucocorticoid receptor (GR) in hypothalamus and hippocampus", "experiment": "Brain immunohistochemistry (percent of area immunolabeled)", "type": "in vivo, rat", "protocol": "Protocols previously published (Torres-Reveron et al., 2016, 2009, 2008) were followed. Rats were perfused with 4% paraformaldehyde by aortic arch perfusion and brains were removed and stored in cryoprotectant solution (30% sucrose, 30% ethylene glycol) until further processing. Coronal tissue sections (40 μm thick) through the hypothalamus (sections 0.92 to 1.88 caudal to Bregma) and dorsal hippocampus (sections 3.8 to 4.3 caudal to Bregma), which include the amygdala were selected and incubated in antiserum raised against CRHR1 (goat polyclonal, Abcam, cat. ab59023), CRH peptide antibody (guinea pig polyclonal, Peninsula labs., cat. T-5007) or glucocorticoid receptor antibody (GR, rabbit monoclonal, Cell Signaling cat. #3660) for 48 hrs. at 4° C. Optimal working concentrations were determined for each antibody. The primary antibody was labeled with CY3 secondary antibody (1:400 Jackson ImmunoResearch, West Grove, Pa.). Images were taken at the same time and illumination (excitation) and background corrected to control for batch effects. All regions of interest were analyzed using Image J software (open access from NIH) to calculate the percent of positive immunolabeling within the region of interest. Tissue from control and experimental animals was processed together. For each animal, the two best morphologically preserved sections of each region of interest were included in the analysis."}, "[2]": {"system": "mineralocorticoid receptor 2 mRNA", "experiment": "mRNA of mineralocorticoid receptor 2 within the adrenal glands", "type": "in vivo, rat", "settings": "compared to sham group", "protocol": "FIG. 18: mRNA of mineralocorticoid receptor 2. Within the adrenal glands of the same animals from the sham or endometriosis groups that received vehicle or antalarmin, the mRNA of the mineralocorticoid receptor 2 was measured. This receptor is in charge of binding adrenocorticotropic hormone (ACTH), which was elevated in animals that received antalarmin. The mineralocorticoid receptor mRNA expression is decreased in response to antalarmin as compared to the sham group. This could be due to a down regulation of the receptor in response to increased ACTH circulating levels. ** p<0.01."}, "[3]": {"settings": "20 mg/kg i.p. days 1-7 after surgery"}, "[4]": {"settings": "compared to sham, both endometriosis groups regardless of treatment"}},
  "data": [
    {"smiles": "CCCCN(CC)c1nc(C)nc2c1c(C)c(C)n2-c1c(C)cc(C)cc1C", "note": "[antalarmin]", "values": [
      {"measurement": "average vesicle area per rat, difference to vehicle", "setting": "endometriosis vesicles; [3]", "value": 55, "unit": "%"},
      {"measurement": "average vesicle volume per rat, difference to vehicle", "setting": "endometriosis vesicles; [3]", "value": 68, "unit": "%"},
      {"measurement": "total weight of endometriosis vesicles (sum per rat), less than vehicle control (size decrease)", "setting": "endometriosis vesicles; [3]", "value": 67, "unit": "%"},
      {"measurement": "decrease in the number of developed endometriosis vesicles", "setting": "endometriosis vesicles; 20 mg/kg i.p. days 1-7 after surgery, vs vehicle", "value": 30, "unit": "%"},
      {"measurement": "vesicle classification by grade (1-5, length scale)", "setting": "endometriosis vesicles; vs vehicle treated control", "value": "a larger percentage of endometriosis vesicles that disappeared, as well as a reduced percentage of vesicles of grade 3 and 5"},
      {"measurement": "CRHR1 immunolabeling in dentate gyrus (DG)", "setting": "[1]; [4]", "value": "Large increases in CRHR1 labeling"},
      {"measurement": "GR immunolabeling in dentate gyrus (DG)", "setting": "[1]; [4]", "value": "Large increases in GR labeling"},
      {"measurement": "CRH peptide immunolabeling in PVN and hippocampus", "setting": "[1]; day 60", "value": "No changes in CRH peptide"},
      {"measurement": "CRHR1 immunolabeling in CA3", "setting": "[1]; day 60", "value": "No changes in CRHR1"},
      {"measurement": "GR immunolabeling in CA3", "setting": "[1]; day 60", "value": "no changes in GR"},
      {"measurement": "mineralocorticoid receptor 2 mRNA expression in adrenal glands", "setting": "[2]", "value": "decreased"}
    ]}
  ]
}
